Holding throughout (format): cell-based, mouse
The subject of experiment [1] is 4F-transduced Oct4-GFP MEFs. Put plainly: Kinase inhibitor treatment of 4F-transduced Oct4-GFP MEFs, Oct4-GFP+ colony count (reprogramming efficiency). To be noted: for reprogramming, Oct4-GFP+ colonies: secondary screen, 12-well plates, 2 μM, drug from day 3, colonies at day 13, vs DMSO; for reprogramming, Oct4-GFP+ colonies, dose/response: 0.5 μM, drug from day 3, colonies at day 13; for iPSC generation in non-permissive conditions: 4F expression too low to reprogram vehicle-treated MEFs, GFP+ colonies at day 12-13; for iPSC generation when p53 is silenced by shRNA: 4F plus p53 shRNA, inhibitor from day 3, GFP+ colonies at day 12.
Protocol: MEFs were cultured in DMEM (Invitrogen, 11995-065) with 10% FBS (Invitrogen) plus glutamine and NEAA. Only MEFs at passage of 0 to 4 were used for reprogramming. pMX-Oct4, Sox2, Klf4 and cMyc were purchased from Addgene. […] Viruses were harvested and combined 2 days later. For reprogramming, MEFs were seeded in 12-well plates and transduced with 4F virus the next day with 4 ug/ml Polybrene. One day later, the medium was changed to fresh MEF medium, and 3 days later it was changed to mES culture medium supplemented with LIF (Millipore, ESG1107). GFP+ colonies were picked at day 14 post-transduction, and expanded clones were cultured in DMEM with 15% FBS (Hyclone) plus LIF, thioglycerol, glutamine and NEAA. Irradiated CF1 MEFs served as feeder layers to culture mES cells and derived iPS clones.
All compounds are well-characterized protein kinase inhibitors. Compounds were diluted to 2 mM in 96-well plates. 4F-transduced cells were seeded into gelatin coated plates (4000 cells/well). Inhibitors were added every other day until day 13. Cells were then fixed with 4% paraformaldehyde for 20 min at room temperature and number of Oct4-GFP+ colonies was directly counted under a microscope. Cells were then stained with Vector red alkaline phosphatase substrate kit I™ (Vector laboratories, SK5100).
To define signaling mechanisms underlying reprogramming, a double-blind screen of 244 well-characterized cell-permeable protein kinase inhibitors was undertook to identify kinases that enhance or inhibit the process. Mouse embryonic fibroblasts from a transgenic line in which GFP expression is driven by the endogenous Oct4 promoter were chosen as the starting material for a reporter cell line of somatic cell reprogramming. Fully reprogrammed cells switch on endogenous Oct4 expression, making resultant iPS colonies GFP-positive and enabling quantification of reprogramming efficiency. To minimize well-to-well variation, MEFs were first transduced with 4F factors in bulk (FIG. 9A) and then reseeded at 3000 cells/well into gelatin-coated 96-well plates before inhibitor treatment. Starting at day 3 post-transduction, inhibitors were added at a final concentration of 2 μM and media were refreshed every other day with mES culture medium plus inhibitor. At day 13 post-transduction, plates were fixed in 4% paraformaldehyde and GFP-positive colonies were directly quantified microscopically.
Two columns of wells from each plate (columns 1 and 12) were treated with DMSO (vehicle) only and served as controls.

Experiment [2] relates to GSK3β. Put plainly: Western blotting of phospho- and total GSK3β. To be noted: 4F-infected MEFs, 1 μM each of Akt X and B6. Here is the method: 4F-infected MEFs were treated with different doses of B6 inhibitor starting at day 3 post-infection for 48 hrs before being harvested for western blotting analysis.
The experiment was the same as FIG. 5C. Actin served as the loading control.
4F-infected MEFs were treated with 1 μM each of Akt inhibitor (Akt X) and B6.
Membranes were blocked with 5% milk in TBST for at least 1 hr at room temp or overnight at 4° C.

The subject of experiment [3] is MEFs during reprogramming. Put plainly: Alkaline phosphatase (AP)+ colony formation during reprogramming. To be noted: molecule applied during reprogramming.
The test system of experiment [4] is uninfected MEFs. Description: Cell proliferation assay (Celltiter 96 aqueous), uninfected MEFs. To be noted: 0.5 μM. The protocol: (§1) MEFs were treated with drugs at 2 μM and proliferation was assayed by using the Celltiter 96™ aqueous method (Promega). Y-axis represents the absorbance at 490 nm to detect formazan, which is converted from MTS tetrazolium by living cells. A higher reading indicates increased cell number. […] Oct4-GFP+ colonies were quantified at day 13.
(§2) FIG. 16A is a graph plotting relative cell viability. 4F-infected MEFs were seeded in 96-well plates and 0.5 μM of three inhibitors was added at day 3 after transduction (Day 0 in dataset). Proliferation of cells was analyzed every other day using the Celltiter 96™ aqueous method (Promega). FIG. 16B is a graph plotting relative cell viability. […] The experimental procedure is the same as in FIG. 16A.
(§3) Cell proliferation assay: 3000 MEFs were seeded in each well in 96-well plates and transduced with 4F virus for three days. Cells were then treated with inhibitors at 0.5 μM and harvested every other day. Cells were incubated with mES medium containing Celltiter 96 Aqueous™ one solution (Promega, G3580) for 1 hr in tissue culture incubator. Absorbance at 490 nm was then measured for each well using a plate reader, and data was used to generate relative proliferation curves using the signal from day 3 post-transduction as a reference.

For experiment [5], the system named is 4F-infected MEFs. Put plainly: Cell proliferation assay (Celltiter 96 aqueous), 4F-infected MEFs. To be noted: 4F-transduced MEFs, 0.5 μM. Here is the method: as §1, §2, §3
The subject of experiment [6] is OSKM-transduced Oct4-EGFP MEFs. Description: OSKM-induced reprogramming with small molecules, GFP+ colonies. To be noted: treated four days after OSKM transduction for at least 10 days, vs DMSO. The protocol:
All 17 molecules are tested by examining alkaline phosphatase (AP)+ colony formation during reprogramming while these molecules were applied. […] To evaluate their effect on induction of mature GFP+ iPS cells, OSKM-transduced Oct4-EGFP MEFs are treated four days after transduction with each of these factors separately.
Oct4-EGFP MEFs are transduced with OSKM and four days later treated with individual small molecules for at least 10 days. GFP+ colonies are identified. Error bars represent standard deviations of three independent experiments. *p value<0.05; **p value<0.005.

With `CCN(CC)CCCCN1c2ccccc2Oc2ccc(Cl)cc21` [Akt X], in experiment [1] (1 μM, triplicate wells), the reprogramming entry is listed as “compromises reprogramming”. Besides, the GSK3β phosphorylation entry in experiment [2] is reported as “diminished”.
Regarding `Cc1cccc(-c2[nH]c(C(C)(C)C)nc2-c2ccc3c(c2)OCO3)n1` [BIM-0086716], the “reprogramming, Oct4-GFP+ colonies” value in experiment [1] was “consistently and significantly enhanced reprogramming”.
On to `COC(=O)[C@H]1[C@H]2C[C@H]3c4[nH]c5ccccc5c4CCN3C[C@@H]2CC[C@@H]1O.Cl` [Corynanthine, Corynanthine hydrochloride], for which, in experiment [3], the “effect on AP+ colony formation” value is on record as “not showing adverse effect on AP+ colony formation”.
Still for that read-out and setting: to `O=C(NCCN1CCOCC1)c1ccc(Cl)cc1` [Moclobemide] belongs “not showing adverse effect on AP+ colony formation”.
For `O=S(=O)(c1c(O)c(Cl)cc(Cl)c1Cl)c1c(O)c(Cl)cc(Cl)c1Cl` [BIM-0207174], in experiment [1], the “reprogramming, Oct4-GFP+ colonies, dose/response” value was “potent enhancers”; the “iPSC generation in non-permissive conditions” value was “enhanced iPSC generation even in non-permissive conditions”; the “iPSC generation when p53 is silenced by shRNA” value is “equivalent in inhibitor-treated and -untreated conditions”; the “reprogramming, Oct4-GFP+ colonies” value was “consistently and significantly enhanced reprogramming”. Besides, the proliferation result in experiment [4] was “did not significantly promote proliferation”. Moreover, in experiment [5], the proliferation entry was “did not significantly promote proliferation”.
Take `COc1ccc2cc(CCC(C)=O)ccc2c1` [Nabumetone]: the “increase in number of reprogrammed colonies” value in experiment [6] is “at least 2.8 fold”. In addition, in experiment [3], the “effect on AP+ colony formation” value is given as “not showing adverse effect on AP+ colony formation”.
With 4-hydroxytamoxifen, the “effect on AP+ colony formation” value in experiment [3] is “not showing adverse effect on AP+ colony formation”.
Turning to `O=[N+]([O-])c1ccc(CNc2nc(NCc3cccc(C(F)(F)F)c3)nc3nc[nH]c23)cc1` [BIM-0207164], in experiment [1], the “reprogramming, Oct4-GFP+ colonies, dose/response” value was “potent enhancers”; the “iPSC generation in non-permissive conditions” value was “enhanced iPSC generation even in non-permissive conditions”; the “iPSC generation when p53 is silenced by shRNA” value is “equivalent in inhibitor-treated and -untreated conditions”; the “reprogramming, Oct4-GFP+ colonies” value was “consistently and significantly enhanced reprogramming”. Besides, the proliferation entry in experiment [4] is reported as “did not significantly promote proliferation”. Also, the proliferation result in experiment [5] is given as “did not significantly promote proliferation”.

For the origin of these results see patent US9957484B2, “Methods for promoting cell reprogramming” (Sanford-Burnham Medical Research Institute, priority 2011, dated 2018).
